Measured values reported in ChEMBL document CHEMBL1201862, “PubChem BioAssay data set” (2004).
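Five concentrations, 48 hours, 96-well plates. The concentration for 50% growth inhibition is given as GI50.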 Active and inactive are the calls of the source. No stated cut-off is given here; in the data, active = GI50 up to about 1.1 µM and inactive = higher.

How the values were obtained:
Test in all cases: DTP human tumour cell line panel, 48 h
SF-539 = tested on: SF-539
SW-620 = tested on: SW-620
MCF7 = tested on: MCF7
OVCAR-8 = tested on: OVCAR-8
MDA-N = tested on: MDA-N
HOP-92 = tested on: HOP-92
MOLT-4 = tested on: MOLT-4
UACC-62 = tested on: UACC-62
SF-295 = tested on: SF-295
SN12C = tested on: SN12C
SK-MEL-28 = tested on: SK-MEL-28
786-0 = tested on: 786-0
A549 = tested on: A549
HT-29 = tested on: HT-29
A498 = tested on: A498
K562 = tested on: K562
TK-10 = tested on: TK-10
HL-60 = tested on: HL-60
NCI-H460 = tested on: NCI-H460
Hs-578T = tested on: Hs-578T

SMILES	GI50 (SF-539)	GI50 (SW-620)	GI50 (MCF7)	GI50 (OVCAR-8)	GI50 (MDA-N)	GI50 (HOP-92)	GI50 (MOLT-4)	GI50 (UACC-62)	GI50 (SF-295)	GI50 (SN12C)	GI50 (SK-MEL-28)	GI50 (786-0)	GI50 (A549)	GI50 (HT-29)	GI50 (A498)	GI50 (K562)	GI50 (TK-10)	GI50 (HL-60)	GI50 (NCI-H460)	GI50 (Hs-578T)
COC(=O)c1ccc(NC(=O)c2cc3c(cc2Br)OCO3)o1	> 100 µM (inactive)	> 100 µM (inactive)	> 100 µM (inactive)	> 100 µM (inactive)	42.5 µM (inactive)	26.5 µM (inactive)	95.7 µM (inactive)	> 100 µM (inactive)	> 100 µM (inactive)	> 100 µM (inactive)	> 100 µM (inactive)	> 100 µM (inactive)	> 100 µM (inactive)	> 100 µM (inactive)	> 100 µM (inactive)	63.2 µM (inactive)	> 100 µM (inactive)	> 100 µM (inactive)		
COc1cccc(CN(C(=O)/C=C\Sc2ccccc2)C(C)(C)C)c1	> 100 µM (inactive)	> 100 µM (inactive)	81.3 µM (inactive)	> 100 µM (inactive)	74 µM (inactive)	2.61 µM (inactive)	18.1 µM (inactive)	> 100 µM (inactive)	> 100 µM (inactive)	> 100 µM (inactive)	> 100 µM (inactive)	> 100 µM (inactive)	43.8 µM (inactive)	31.1 µM (inactive)	> 100 µM (inactive)		> 100 µM (inactive)	20.5 µM (inactive)		
CCOC(=O)N1C(=S)C(C(=O)OC)(C(=O)OC)N=C1C		> 100 µM (inactive)	> 100 µM (inactive)	> 100 µM (inactive)	> 100 µM (inactive)	> 100 µM (inactive)	> 100 µM (inactive)	> 100 µM (inactive)	> 100 µM (inactive)	> 100 µM (inactive)	> 100 µM (inactive)	> 100 µM (inactive)	> 100 µM (inactive)		> 100 µM (inactive)	> 100 µM (inactive)	> 100 µM (inactive)	> 100 µM (inactive)	> 100 µM (inactive)	
CCCCOc1c(C(=O)O)cc(Br)cc1C(=O)O	> 100 µM (inactive)	> 100 µM (inactive)	> 100 µM (inactive)	> 100 µM (inactive)	> 100 µM (inactive)	> 100 µM (inactive)	> 100 µM (inactive)		> 100 µM (inactive)	> 100 µM (inactive)	> 100 µM (inactive)	> 100 µM (inactive)	> 100 µM (inactive)		> 100 µM (inactive)	> 100 µM (inactive)	> 100 µM (inactive)		> 100 µM (inactive)	
CC1(C)COC(c2cccc(C3=NC(C)(C)CO3)c2Br)=N1	> 100 µM (inactive)	> 100 µM (inactive)	> 100 µM (inactive)	> 100 µM (inactive)		> 100 µM (inactive)	> 100 µM (inactive)	7.48 µM (inactive)			> 100 µM (inactive)	> 100 µM (inactive)	> 100 µM (inactive)	> 100 µM (inactive)		> 100 µM (inactive)	> 100 µM (inactive)	> 100 µM (inactive)	> 100 µM (inactive)	
CCCCNCCCNCCCNC(=O)c1csc(-c2csc(CCNC(=O)C(NC(=O)C(C)C(O)C(C)NC(=O)C(NC(=O)c3nc(C(CC(N)=O)NCC(N)C(N)=O)nc(N)c3C)C(OC3OC(CO)C(O)C(O)C3OC3OC(CO)C(O)C(OC(N)=O)C3O)c3c[nH]cn3)C(C)O)n2)n1 (stereo not given)	< 0.01 µM (active)	15.2 µM (inactive)	1.86 µM (inactive)	1.92 µM (inactive)		0.0798 µM (active)	2.07 µM (inactive)	0.362 µM (active)	0.0681 µM (active)	2.21 µM (inactive)	13.6 µM (inactive)	0.167 µM (active)	0.386 µM (active)	25.1 µM (inactive)	3.65 µM (inactive)	10.1 µM (inactive)	17.3 µM (inactive)	14.9 µM (inactive)	0.0264 µM (active)	8.79 µM (inactive)
CC1=C(C(=O)Nc2ccccc2C)C(c2ccc(C3C(C(=O)Nc4ccccc4C)=CNC=C3C(=O)Nc3ccccc3C)cc2)C(C(=O)Nc2ccccc2C)=C(C)N1	14.4 µM (inactive)	14.6 µM (inactive)		25.6 µM (inactive)		22.4 µM (inactive)	4.5 µM (inactive)	12.7 µM (inactive)	19.3 µM (inactive)	14.8 µM (inactive)	17.9 µM (inactive)	15.1 µM (inactive)	40.6 µM (inactive)	14.4 µM (inactive)	20.7 µM (inactive)	9.27 µM (inactive)	49.7 µM (inactive)	8 µM (inactive)	21.4 µM (inactive)	
CC(=O)OC12c3ccccc3-c3ccccc3C1C(C(=O)O)C2C(=O)O (stereo not given)	> 10 µM (inactive)	> 10 µM (inactive)	> 10 µM (inactive)	> 10 µM (inactive)		> 10 µM (inactive)	> 10 µM (inactive)		> 10 µM (inactive)	> 10 µM (inactive)	> 10 µM (inactive)	> 10 µM (inactive)		> 10 µM (inactive)	> 10 µM (inactive)	> 10 µM (inactive)	> 10 µM (inactive)	> 10 µM (inactive)	> 10 µM (inactive)	> 10 µM (inactive)
O=C1OC2(c3ccccc3Oc3ccccc32)c2ccccc21	> 100 µM (inactive)	> 100 µM (inactive)		> 100 µM (inactive)		> 100 µM (inactive)	> 100 µM (inactive)	> 100 µM (inactive)	> 100 µM (inactive)	> 100 µM (inactive)	> 100 µM (inactive)	> 100 µM (inactive)	> 100 µM (inactive)	> 100 µM (inactive)	> 100 µM (inactive)	50.8 µM (inactive)	> 100 µM (inactive)	99.8 µM (inactive)	> 100 µM (inactive)	
O=C(/C=C/c1ccccc1O)c1cccc2ccccc12	76.4 µM (inactive)	> 28.1 µM (inactive)		> 71 µM (inactive)		> 52.2 µM (inactive)	21.1 µM (inactive)	> 100 µM (inactive)	> 100 µM (inactive)	44.4 µM (inactive)	> 100 µM (inactive)	58.7 µM (inactive)	> 80.2 µM (inactive)	> 66.5 µM (inactive)	> 100 µM (inactive)	32 µM (inactive)	> 100 µM (inactive)	27.9 µM (inactive)	> 84.1 µM (inactive)	
O=C1C=CC(CC(=O)c2ccc3ccccc3c2)O1 (stereo not given)	18.9 µM (inactive)	26.5 µM (inactive)		18.4 µM (inactive)		28 µM (inactive)	21.7 µM (inactive)	18.8 µM (inactive)	> 100 µM (inactive)	18.8 µM (inactive)	55.8 µM (inactive)	21.6 µM (inactive)	61.9 µM (inactive)	19.1 µM (inactive)	20 µM (inactive)	32.9 µM (inactive)	32.8 µM (inactive)	17.1 µM (inactive)	24.2 µM (inactive)	
CCc1c(-c2ccc(OC)cc2)oc(OC)c(C)c1=O	> 100 µM (inactive)	> 100 µM (inactive)	79.1 µM (inactive)	> 100 µM (inactive)		97.1 µM (inactive)	31.9 µM (inactive)	64 µM (inactive)	> 100 µM (inactive)	> 100 µM (inactive)	> 100 µM (inactive)	> 100 µM (inactive)	79.1 µM (inactive)	91.4 µM (inactive)	68.9 µM (inactive)	34.2 µM (inactive)	> 100 µM (inactive)		40.5 µM (inactive)	> 100 µM (inactive)
CN(C)c1n/c(=N/c2ncn[nH]2)ss1	> 100 µM (inactive)	> 100 µM (inactive)		> 100 µM (inactive)		> 100 µM (inactive)	> 100 µM (inactive)	> 100 µM (inactive)	> 100 µM (inactive)	> 100 µM (inactive)	> 100 µM (inactive)	> 100 µM (inactive)	> 100 µM (inactive)	> 100 µM (inactive)	> 100 µM (inactive)	> 100 µM (inactive)	> 100 µM (inactive)	> 100 µM (inactive)	> 100 µM (inactive)	
CN(/N=C/c1cccc2cccnc12)c1c([N+](=O)[O-])cc([N+](=O)[O-])cc1[N+](=O)[O-]	> 100 µM (inactive)	> 100 µM (inactive)		> 100 µM (inactive)		> 100 µM (inactive)	11.4 µM (inactive)	> 100 µM (inactive)	> 100 µM (inactive)	> 100 µM (inactive)	> 100 µM (inactive)	> 100 µM (inactive)	46.8 µM (inactive)	69.2 µM (inactive)	25.5 µM (inactive)	3.56 µM (inactive)	> 100 µM (inactive)	5.82 µM (inactive)	> 100 µM (inactive)	
O=C1/C(=C\c2cccc(Oc3ccccc3)c2)S(=O)(=O)C(c2ccccc2)N1c1ccccc1Cl (stereo not given)	5.83 µM (inactive)	30.2 µM (inactive)	21.9 µM (inactive)	23.4 µM (inactive)	21.2 µM (inactive)	17.9 µM (inactive)	15.1 µM (inactive)	25.2 µM (inactive)	30.8 µM (inactive)	23 µM (inactive)	38.9 µM (inactive)	29.3 µM (inactive)	31.6 µM (inactive)	22.6 µM (inactive)	45.6 µM (inactive)	14.5 µM (inactive)	77.1 µM (inactive)	13.9 µM (inactive)	32.6 µM (inactive)	
CN1CCC(=O)/C(=C/c2ccccc2)C1	17.7 µM (inactive)	4.99 µM (inactive)		22 µM (inactive)		17.5 µM (inactive)	7.74 µM (inactive)	21.9 µM (inactive)	15.4 µM (inactive)	14.7 µM (inactive)	18.2 µM (inactive)	12.5 µM (inactive)	17.7 µM (inactive)	3.32 µM (inactive)	18.5 µM (inactive)	5.24 µM (inactive)	16.1 µM (inactive)	9.35 µM (inactive)	16.3 µM (inactive)	
